{"source": "patent EP0306846A2", "about": "“Synergistic combination comprising a phosphodiesterase inhibitor and a thromboxane-A2 antagonist, and its use or preparation” (Dr. Karl Thomae GmbH, priority 1987, dated 1989)", "key": {"[1]": {"conditions": "in combination with Dipyridamol; J. Clin. Invest. 75, 1591-1599 (1985); cited from earlier work"}, "[2]": {"tested_on": "Plättchenaggregation im Gesamtblut", "assay": "collagen-induced platelet aggregation in pooled rat whole blood, substances added in vitro", "type": "cell-based, Ratten", "conditions": "collagen 7 µg/ml, read-out: % Hemmung", "method": "Ratten mit einem durchschnittlichen Körpergewicht von 250 bis 300 g wurden mit 60 mg/kg Pentobarbital narkotisiert. Aus der abdominalen Arterie wurde 4,5 ml Blut entnommen und in 0,5 ml Zitrat (3,8 %) gegeben. Das Blut von 3 Ratten wurde jeweils gepoolt und Proben hiervon, die Lösungsmittel, die Einzelsubstanzen oder die zu untersuchende Kombination enthielten, wurden 10 Minuten lang rotiert. Von diesen Proben wurden jeweils 200 µl in Aggregometer-Küvetten gegeben und 5 Minuten lang bei 37°C gerührt. Anschließend wurden 10 µl Collagenlösung (Endkonzentration: 7 µg/ml) zugegeben und zu verschiedenen Zeiten jeweils 10 µl Blut entnommen, welches anschließend mit Formaldehyd fixiert wurde. In diesen Proben wurden die nicht aggregierten Plättchen mit einem Ultra-Flo 100 (Becton-Dickinson) bestimmt. Die nachfolgende Tabelle enthält die gefundenen Werte: […]"}, "[3]": {"tested_on": "Plättchenaggregation im Gesamtblut", "assay": "collagen-induced platelet aggregation in whole blood of rats after administration of the substances (ex vivo)", "parameters": "species or system Ratten", "conditions": "rat, versus vehicle controls", "method": "Ratten mit einem durchschnittlichen Körpergewicht von 250 bis 300 g wurden mit 60 mg/kg Pentobarbital narkotisiert. Aus der abdominalen Arterie wurde 4,5 ml Blut entnommen und in 0,5 ml Zitrat (3,8 %) gegeben. Das Blut von 3 Ratten wurde jeweils gepoolt und Proben hiervon, die Lösungsmittel, die Einzelsubstanzen oder die zu untersuchende Kombination enthielten, wurden 10 Minuten lang rotiert. Von diesen Proben wurden jeweils 200 µl in Aggregometer-Küvetten gegeben und 5 Minuten lang bei 37°C gerührt. Anschließend wurden 10 µl Collagenlösung (Endkonzentration: 7 µg/ml) zugegeben und zu verschiedenen Zeiten jeweils 10 µl Blut entnommen, welches anschließend mit Formaldehyd fixiert wurde. In diesen Proben wurden die nicht aggregierten Plättchen mit einem Ultra-Flo 100 (Becton-Dickinson) bestimmt. Die nachfolgende Tabelle enthält die gefundenen Werte:\nDesweiteren wurde die synergistische Wirkung auf die Plättchenaggregation im Gesamtblut für die Kombination, bestehen aus Pimobendan (Substanz C) und Substanz B in Vergleich zu den Einzelverbindungen wie folgt untersucht: Ratten mit einem durchschnittlichen Körpergewicht von 250 bis 300 g Körpergewicht wurden 5 mg/kg Substanz C und 0,5 mg/kg Substanz B oder die Kombination im Vergleich zu Kontrollen, welche nur das Vehikel appliziert bekamen, gegeben. […]"}}}
{"molecule": "O=C(O)c1ccc(OCCn2ccnc2)cc1", "note": "[Dazoxiben, 4-[2-(1H-Imidazol-1-yl)-ethoxy]benzoesäure]", "values": [{"measurement": "Einfluß auf die antithrombotische Wirkung des PDE-Hemmers", "setting": "[1]", "result": "keinen verbessernden Einfluß"}]}
{"molecule": "CCOc1nc(N2CCNCC2)nc(N2CC[S+]([O-])CC2)c1[N+](=O)[O-]", "note": "[Substanz A, 6-Äthoxy-5-nitro-4-(1-oxidothiomorpholino)-2-piperazino-pyrimidin]", "values": [{"measurement": "inhibition at 0.03 µM", "setting": "[2]; 0,03 µMol/l", "result": 4, "unit": "%"}]}
{"molecule": "COc1ccc(-c2nc3ccc(C4=NNC(=O)CC4C)cc3[nH]2)cc1", "note": "(stereo not drawn) [Substanz C, 2-(4-Methoxy-phenyl)-5(6)-(5-methyl-3-oxo-4,5-dihydro-2H-6-pyridazinyl)-benzimidazol, reference compound]", "values": [{"measurement": "% Hemmung", "setting": "[3]; dose 5,0 mg/kg", "result": -1, "unit": "%"}]}
{"molecule": "O=C(O)CCCc1ccc2c(c1)CC(NS(=O)(=O)c1ccc(Cl)cc1)C2", "note": "(stereo not drawn) [Substanz B, 4-[2-p-Chlorbenzolsulfonamido-indan-5-yl]-buttersäure]", "values": [{"measurement": "inhibition at 0.1 µM", "setting": "[2]; 0,10 µMol/l", "result": 3, "unit": "%"}, {"measurement": "inhibition at 0.3 µM", "setting": "[2]; 0,30 µMol/l", "result": 19, "unit": "%"}, {"measurement": "% Hemmung", "setting": "[3]; dose 0,5 mg/kg", "result": 59, "unit": "%"}]}
